Laboratory results: patent US9340500B2, “Aromatic heterocyclic derivative having TRPV4-inhibiting activity” (SHIONOGI & CO., LTD., priority 2011, dated 2016)

Columns and labels:
[1] = target: human TRPV4 (Homo sapiens (Human), UniProt Q9HBA0); assay: Test Example 1: measurement of TRPV4 inhibitory activity (Fluo 4-AM, FLIPR TETRA, 4α-PDD 1 μmol/L); assay type: cell-based; settings: hTRPV4/CHO cells, 4α-PDD 1 μmol/L
Summary of the method: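 Calcium influx evoked by 4α-PDD (final 1 μmol/L) in hTRPV4/CHO-K1 cells loaded with Fluo-4 AM (final 3 μmol/L), pH 7.4 HEPES-Hanks with probenecid; compounds added 5 min earlier. Inhibition relative to 20 μM Ruthenium Red gave IC50 (logistic), converted to Ki via agonist EC50.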

[2] = Metabolism stability test; assay type: in vitro ADME; settings: human liver microsomes, 30 minutes, compound concentration 2 μmol/L
Procedure: Using a commercially available pooled human hepatic microsomes, a test compound was reacted for a constant time, a remaining rate was calculated by comparing a reacted sample and an unreacted sample, thereby, a degree of metabolism in liver was assessed.
A reaction was performed (oxidative reaction) at 37° C. for 0 minute or 30 minutes in the presence of 1 mmol/L NADPH in 0.2 mL of a buffer (50 mmol/L Tris-HCl pH 7.4, 150 mmol/L potassium chloride, 10 mmol/L magnesium chloride) containing 0.5 mg protein/mL of human liver microsomes. After the reaction, 50 μL of the reaction mixture was added to 100 μL of a methanol/acetonitrile=1/1 (v/v), mixed and centrifuged at 3000 rpm for 15 minutes. The test compound in the supernatant was quantified by LC/MS/MS, and a remaining amount of the test compound after the reaction was calculated, letting a compound amount at 0 minute reaction time to be 100%. Hydrolysis reaction was performed in the absence of NADPH and glucuronidation reaction was in the presence of 5 mM UDP-glucuronic acid in place of NADPH, followed by similar operations.

[3] = target: human ether-a-go-go related gene (hERG) channel (Homo sapiens (Human), UniProt Q12809); assay: hERG test (whole cell patch clamp, IKr); assay type: cell-based; settings: 1 μmol/L of test compound, HEK293 cells expressing hERG
Sequence of human ether-a-go-go related gene (hERG) channel (Q12809 whole entry): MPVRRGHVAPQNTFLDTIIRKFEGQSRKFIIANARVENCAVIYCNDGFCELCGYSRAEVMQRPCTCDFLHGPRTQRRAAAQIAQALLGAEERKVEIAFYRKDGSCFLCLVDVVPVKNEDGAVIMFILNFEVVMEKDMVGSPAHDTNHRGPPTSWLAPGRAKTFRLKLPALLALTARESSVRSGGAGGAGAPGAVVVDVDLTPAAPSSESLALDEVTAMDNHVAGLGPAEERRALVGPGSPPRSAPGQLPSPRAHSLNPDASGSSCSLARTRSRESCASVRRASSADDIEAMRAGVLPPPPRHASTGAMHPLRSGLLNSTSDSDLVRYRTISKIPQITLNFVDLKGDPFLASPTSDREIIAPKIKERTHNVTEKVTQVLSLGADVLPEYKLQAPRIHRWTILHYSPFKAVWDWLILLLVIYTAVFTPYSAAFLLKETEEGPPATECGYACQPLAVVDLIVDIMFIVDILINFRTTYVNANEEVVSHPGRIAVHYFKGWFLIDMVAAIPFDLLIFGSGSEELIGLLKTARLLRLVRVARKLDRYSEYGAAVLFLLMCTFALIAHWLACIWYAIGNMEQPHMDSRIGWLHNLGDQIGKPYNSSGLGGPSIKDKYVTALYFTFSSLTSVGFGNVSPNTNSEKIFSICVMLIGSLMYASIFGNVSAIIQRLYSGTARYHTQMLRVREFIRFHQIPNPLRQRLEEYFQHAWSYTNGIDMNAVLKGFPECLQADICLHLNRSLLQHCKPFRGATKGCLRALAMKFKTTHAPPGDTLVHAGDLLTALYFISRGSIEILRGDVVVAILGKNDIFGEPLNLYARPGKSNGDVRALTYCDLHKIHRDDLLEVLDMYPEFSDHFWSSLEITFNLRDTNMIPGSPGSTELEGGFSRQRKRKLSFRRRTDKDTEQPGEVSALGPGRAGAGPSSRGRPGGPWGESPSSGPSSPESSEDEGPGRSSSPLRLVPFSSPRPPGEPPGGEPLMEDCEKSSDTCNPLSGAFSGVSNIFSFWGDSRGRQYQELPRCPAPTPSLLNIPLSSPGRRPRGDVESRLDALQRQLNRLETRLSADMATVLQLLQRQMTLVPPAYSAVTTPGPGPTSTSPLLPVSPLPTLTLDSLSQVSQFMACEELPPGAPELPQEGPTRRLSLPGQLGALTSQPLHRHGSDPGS
From the text: For the purpose of assessing risk of an electrocardiogram QT interval prolongation, effects on delayed rectifier K^+ current (IKr), which plays an important role in the ventricular repolarization process, was studied using HEK293 cells expressing human ether-a-go-go related gene (hERG) channel.
After a cell was retained at a membrane potential of −80 mV by whole cell patch clamp method using an automated patch clamp system (PatchXpress 7000A, Axon Instruments Inc.), IKr induced by depolarization pulse stimulation at +40 mV for 2 seconds and, further, repolarization pulse stimulation at −50 mV for 2 seconds was recorded. […] From the recording IKr, an absolute value of the tail peak current was measured based on the current value at the resting membrane potential using an analysis software (DataXpress ver. 1, Molecular Devices Corporation). Further, the % inhibition relative to the tail peak current before application of the test substance was calculated, and compared with the vehicle-applied group (0.1% dimethyl sulfoxide solution) to assess influence of the test substance on IKr.

Sequence of human TRPV4 (Q9HBA0 whole entry): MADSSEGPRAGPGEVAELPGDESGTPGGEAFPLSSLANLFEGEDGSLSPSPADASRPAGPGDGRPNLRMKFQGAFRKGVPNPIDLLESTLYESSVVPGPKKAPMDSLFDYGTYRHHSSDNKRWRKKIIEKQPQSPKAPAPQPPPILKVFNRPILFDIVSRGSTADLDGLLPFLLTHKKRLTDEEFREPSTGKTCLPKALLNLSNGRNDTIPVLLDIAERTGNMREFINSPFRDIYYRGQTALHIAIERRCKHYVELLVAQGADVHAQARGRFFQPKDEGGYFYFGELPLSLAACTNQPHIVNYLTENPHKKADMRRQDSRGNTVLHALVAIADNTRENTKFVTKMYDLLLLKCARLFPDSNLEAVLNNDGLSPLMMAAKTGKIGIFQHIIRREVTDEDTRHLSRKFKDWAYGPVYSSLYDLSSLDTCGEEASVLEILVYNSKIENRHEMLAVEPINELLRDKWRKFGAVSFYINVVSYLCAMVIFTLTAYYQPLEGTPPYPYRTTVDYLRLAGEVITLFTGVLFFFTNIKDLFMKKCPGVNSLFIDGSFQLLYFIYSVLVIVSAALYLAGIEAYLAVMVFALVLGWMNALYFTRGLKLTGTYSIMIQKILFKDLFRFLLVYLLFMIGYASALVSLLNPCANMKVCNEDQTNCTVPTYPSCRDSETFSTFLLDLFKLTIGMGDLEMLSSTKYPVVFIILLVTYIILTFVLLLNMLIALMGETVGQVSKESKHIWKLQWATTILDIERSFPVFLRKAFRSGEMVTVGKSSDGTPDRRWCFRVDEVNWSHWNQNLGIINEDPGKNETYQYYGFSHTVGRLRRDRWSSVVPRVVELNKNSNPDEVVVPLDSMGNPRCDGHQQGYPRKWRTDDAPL

IC50 [1] [µM] | Compound | remaining rate (metabolism stability) [2] [%] | hERG % inhibition [3] [%]
0.33 | Cc1c(C(=O)Nc2cccc(C(F)(F)F)c2)cc(-c2ccccc2)n1CCCN(C)C [Compound I-018] | 70.6 | 
0.86 | Cc1c(C(=O)Nc2cccc(C(F)(F)F)c2)cc(-c2ccccc2)n1CCCNS(C)(=O)=O [Compound I-026] |  | 11.7

Compound | IC50 [1] [µM] | remaining rate (metabolism stability) [2] [%] | hERG % inhibition [3] [%]
Cc1c(C(=O)Nc2cccc(C(F)(F)F)c2)ccn1CCCN1CCOCC1 [Compound I-007] | 8.9 | 85 | 
